# Laboratory results published in US20080009418A1, “Selective Inhibitors” (Alchemia LTD., priority 2004, published 2008).
# Key:
# Details in all cases: compound at 10 μM
# Human μ-opioid (MOP) = molecular target: T1, Human μ-opioid (MOP) (Homo sapiens, UniProt P35372); test: Radioligand binding, human μ-opioid (MOP) membranes, FlashPlate, [3H]-Naloxone
# T1 construct: purchased Perkin Elmer Biosignal
# Procedure, shortened: (§1)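 Cloned human receptor membranes were coated onto FlashPlate wells and incubated with radioligand and compound (added from a 0.5 mM DMSO daughter plate) for 1 hour at room temperature in the dark. Scintillation counting gave percent inhibition, with DMSO defining total and reference ligand defining non-specific binding.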
# Human κ-Opioid (KOP) = molecular target: T2, Human κ-Opioid (KOP) (Homo sapiens, UniProt P41145); test: Radioligand binding, human κ-opioid (KOP) membranes, filtration, [3H]-Diprenorphine
# T2 construct: purchased Perkin Elmer Biosignal
# Procedure, shortened: (§2)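 Filtration binding on cloned human receptor membranes (1 Unit/well), [125I]-Substance P for NK1 and [3H]-Diprenorphine for KOP, 1 h at room temperature. Filters PEI-presoaked, washed with cold 50 mM Tris-HCl pH 7.4, counted by scintillation; percent inhibition calculated, reference ligand defining non-specific binding.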
# Human neurokinin (NK1) = molecular target: T3, Human neurokinin (NK1) (Homo sapiens, UniProt P25103); test: Radioligand binding, human neurokinin NK1 membranes, filtration, [125I]-Substance P
# T3 construct: purchased Perkin Elmer Biosignal
# Procedure, shortened: as §2
# Human opioid (ORL1) = molecular target: T4, Human opioid (ORL1) (Homo sapiens, UniProt P41146); test: Radioligand binding, human opioid ORL1 membranes, FlashPlate, [125I]-Nociceptin
# T4 construct: purchased Perkin Elmer Biosignal
# Procedure, shortened: as §1
# [1] = molecular target: T5, Human neuropeptide Y (NPY-Y1) (Homo sapiens, UniProt P25929); test: Radioligand binding, human neuropeptide Y NPY-Y1 membranes, FlashPlate, [125I]-PYY
# T5 construct: purchased Perkin Elmer Biosignal
# T5 sequence (P25929 1-384): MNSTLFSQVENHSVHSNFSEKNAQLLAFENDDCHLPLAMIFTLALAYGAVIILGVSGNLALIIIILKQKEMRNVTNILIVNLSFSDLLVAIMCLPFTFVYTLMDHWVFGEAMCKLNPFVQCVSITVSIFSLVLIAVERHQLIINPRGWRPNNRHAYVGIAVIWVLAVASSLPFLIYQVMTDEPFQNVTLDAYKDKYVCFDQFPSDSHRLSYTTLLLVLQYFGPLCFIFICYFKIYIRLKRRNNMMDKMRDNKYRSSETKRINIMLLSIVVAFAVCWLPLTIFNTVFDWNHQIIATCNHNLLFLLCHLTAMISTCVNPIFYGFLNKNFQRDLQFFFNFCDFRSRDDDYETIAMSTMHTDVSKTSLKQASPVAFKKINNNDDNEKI
# Procedure, shortened: as §1
# Human δ-opioid (DOP) = molecular target: T6, Human δ-opioid (DOP) (Homo sapiens, UniProt P41143); test: Radioligand binding, human δ-opioid (DOP) membranes, FlashPlate, [3H]-Bremazocine
# T6 construct: purchased Perkin Elmer Biosignal
# Procedure, shortened: as §1
# Human melanocortin (MC5) = molecular target: T7, Human melanocortin (MC5) (Homo sapiens, UniProt P33032); test: Radioligand binding, human melanocortin MC5 membranes, FlashPlate, [125I]-NDP-αMSH
# T7 construct: purchased Perkin Elmer Biosignal
# Procedure, shortened: as §1
# Human Melanocortin (MC4) = molecular target: T8, Human Melanocortin (MC4) (Homo sapiens, UniProt P32245); test: Radioligand binding, human melanocortin MC4 membranes, FlashPlate, [125I]-NDP-αMSH
# T8 construct: purchased Perkin Elmer Biosignal
# Procedure, shortened: as §1
# Mouse urotensin (mUR2) = molecular target: T9, Mouse urotensin (mUR2) (Mus musculus, UniProt Q8VIH9); test: Radioligand binding, mouse urotensin mUR2 membranes, FlashPlate, [125I]-Urotensin II
# T9 construct: purchased Perkin Elmer Biosignal
# T9 sequence (Q8VIH9 1-385): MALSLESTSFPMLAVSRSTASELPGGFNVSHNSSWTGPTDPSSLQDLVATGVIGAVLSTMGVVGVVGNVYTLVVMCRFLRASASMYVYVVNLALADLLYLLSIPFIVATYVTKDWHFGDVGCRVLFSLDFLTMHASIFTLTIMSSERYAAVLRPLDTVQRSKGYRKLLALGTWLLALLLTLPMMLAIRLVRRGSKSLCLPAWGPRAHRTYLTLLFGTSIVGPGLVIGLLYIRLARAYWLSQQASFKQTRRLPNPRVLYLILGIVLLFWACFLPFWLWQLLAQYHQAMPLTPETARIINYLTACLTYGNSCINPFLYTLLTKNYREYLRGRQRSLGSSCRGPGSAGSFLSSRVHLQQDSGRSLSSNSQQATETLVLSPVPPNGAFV
# Procedure, shortened: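 Cloned mouse urotensin (mUR2) receptor membranes from Perkin Elmer Biosignal were immobilized in FlashPlate microplates using a proprietary coating. Each well got 19.5 μl buffer, then 0.5 μl of DMSO, reference ligand, or compound. Adding 5 μl of [125I]-Urotensin II, diluted to 5× final concentration in binding buffer, started binding. Plates were sealed with TopSeal-A and incubated 1 hour at room temperature in the dark. Wells were counted for 30 seconds each on a TopCount after a 60-second delay, and percentage inhibition was calculated.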
# Human Melanocortin (MC3) = molecular target: T10, Human Melanocortin (MC3) (Homo sapiens, UniProt P41968); test: Radioligand binding, human melanocortin MC3 membranes, FlashPlate, [125I]-NDP-αMSH
# T10 construct: purchased Perkin Elmer Biosignal
# Procedure, shortened: as §1
# [2] = molecular target: T11, Human melanin-concentrating hormone (MCH1) (Homo sapiens, UniProt Q99705); test: Radioligand binding, human melanin-concentrating hormone MCH1 membranes, FlashPlate, [125I]-S36057
# T11 construct: purchased Perkin Elmer Biosignal
# Procedure, shortened: as §1
# T4 sequence (P41146 whole entry): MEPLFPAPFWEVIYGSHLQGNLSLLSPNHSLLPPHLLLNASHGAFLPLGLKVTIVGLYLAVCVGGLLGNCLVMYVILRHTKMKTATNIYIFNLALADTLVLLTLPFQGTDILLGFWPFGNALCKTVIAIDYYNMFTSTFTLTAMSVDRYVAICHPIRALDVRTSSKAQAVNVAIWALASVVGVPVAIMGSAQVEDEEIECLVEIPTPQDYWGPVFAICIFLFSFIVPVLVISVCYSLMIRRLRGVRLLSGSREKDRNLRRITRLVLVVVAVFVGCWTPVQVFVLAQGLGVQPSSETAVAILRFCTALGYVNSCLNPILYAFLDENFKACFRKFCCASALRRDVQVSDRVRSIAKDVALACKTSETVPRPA
# T10 sequence (P41968 whole entry): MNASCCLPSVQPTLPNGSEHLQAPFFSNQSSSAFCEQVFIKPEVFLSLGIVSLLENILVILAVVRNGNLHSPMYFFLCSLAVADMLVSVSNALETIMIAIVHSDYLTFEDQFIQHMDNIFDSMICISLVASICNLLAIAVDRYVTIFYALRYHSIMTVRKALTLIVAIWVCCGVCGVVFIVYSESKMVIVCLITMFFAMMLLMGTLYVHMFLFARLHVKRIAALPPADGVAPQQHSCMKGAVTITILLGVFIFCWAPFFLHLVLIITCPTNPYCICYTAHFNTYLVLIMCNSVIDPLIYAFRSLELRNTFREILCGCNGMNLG
# T1 sequence (P35372 whole entry): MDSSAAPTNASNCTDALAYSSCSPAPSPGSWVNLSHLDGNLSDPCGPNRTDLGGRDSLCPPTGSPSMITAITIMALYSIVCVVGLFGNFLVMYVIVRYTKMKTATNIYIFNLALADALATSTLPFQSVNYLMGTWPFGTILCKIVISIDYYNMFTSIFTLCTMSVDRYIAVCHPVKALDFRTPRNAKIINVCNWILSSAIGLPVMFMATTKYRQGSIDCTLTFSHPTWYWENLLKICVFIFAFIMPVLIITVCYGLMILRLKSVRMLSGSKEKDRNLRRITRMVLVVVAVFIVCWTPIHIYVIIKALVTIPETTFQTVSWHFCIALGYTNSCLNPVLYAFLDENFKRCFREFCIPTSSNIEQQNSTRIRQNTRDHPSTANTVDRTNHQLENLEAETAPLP
# T8 sequence (P32245 whole entry): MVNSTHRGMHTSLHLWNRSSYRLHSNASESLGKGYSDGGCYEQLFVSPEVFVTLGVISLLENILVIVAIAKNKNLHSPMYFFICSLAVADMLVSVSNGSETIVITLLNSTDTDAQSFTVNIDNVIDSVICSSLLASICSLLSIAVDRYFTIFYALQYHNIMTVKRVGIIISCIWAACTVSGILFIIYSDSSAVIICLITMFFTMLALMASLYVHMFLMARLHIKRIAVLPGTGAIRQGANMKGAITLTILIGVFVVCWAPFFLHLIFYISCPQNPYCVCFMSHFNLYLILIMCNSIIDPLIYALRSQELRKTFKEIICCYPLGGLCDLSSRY
# T6 sequence (P41143 whole entry): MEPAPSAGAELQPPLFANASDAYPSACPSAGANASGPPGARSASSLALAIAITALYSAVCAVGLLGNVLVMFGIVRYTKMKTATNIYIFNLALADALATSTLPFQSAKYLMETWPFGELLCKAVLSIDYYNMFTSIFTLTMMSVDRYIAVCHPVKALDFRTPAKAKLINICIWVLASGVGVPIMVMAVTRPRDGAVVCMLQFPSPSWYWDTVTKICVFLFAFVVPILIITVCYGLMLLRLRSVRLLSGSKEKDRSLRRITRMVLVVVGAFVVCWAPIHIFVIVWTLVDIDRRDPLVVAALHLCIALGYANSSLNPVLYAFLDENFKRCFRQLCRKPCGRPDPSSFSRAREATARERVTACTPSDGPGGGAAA
# T7 sequence (P33032 whole entry): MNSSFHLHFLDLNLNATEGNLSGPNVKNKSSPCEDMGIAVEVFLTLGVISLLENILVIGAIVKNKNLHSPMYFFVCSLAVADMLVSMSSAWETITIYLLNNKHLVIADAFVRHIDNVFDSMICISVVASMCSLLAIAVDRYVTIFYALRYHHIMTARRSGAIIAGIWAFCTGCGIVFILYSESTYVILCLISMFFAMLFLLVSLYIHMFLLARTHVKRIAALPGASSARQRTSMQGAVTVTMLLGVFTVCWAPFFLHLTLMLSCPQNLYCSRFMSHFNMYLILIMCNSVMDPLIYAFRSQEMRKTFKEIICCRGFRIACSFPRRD
# T11 sequence (Q99705 whole entry): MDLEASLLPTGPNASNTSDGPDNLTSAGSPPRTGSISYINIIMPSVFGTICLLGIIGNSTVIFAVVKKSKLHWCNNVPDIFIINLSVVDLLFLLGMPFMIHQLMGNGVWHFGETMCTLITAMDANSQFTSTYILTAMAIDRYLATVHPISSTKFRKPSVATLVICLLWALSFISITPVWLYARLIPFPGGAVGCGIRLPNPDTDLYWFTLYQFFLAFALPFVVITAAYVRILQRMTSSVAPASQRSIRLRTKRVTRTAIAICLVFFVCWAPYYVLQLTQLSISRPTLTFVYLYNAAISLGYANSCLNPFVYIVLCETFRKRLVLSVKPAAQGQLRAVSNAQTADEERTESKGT
# T3 sequence (P25103 whole entry): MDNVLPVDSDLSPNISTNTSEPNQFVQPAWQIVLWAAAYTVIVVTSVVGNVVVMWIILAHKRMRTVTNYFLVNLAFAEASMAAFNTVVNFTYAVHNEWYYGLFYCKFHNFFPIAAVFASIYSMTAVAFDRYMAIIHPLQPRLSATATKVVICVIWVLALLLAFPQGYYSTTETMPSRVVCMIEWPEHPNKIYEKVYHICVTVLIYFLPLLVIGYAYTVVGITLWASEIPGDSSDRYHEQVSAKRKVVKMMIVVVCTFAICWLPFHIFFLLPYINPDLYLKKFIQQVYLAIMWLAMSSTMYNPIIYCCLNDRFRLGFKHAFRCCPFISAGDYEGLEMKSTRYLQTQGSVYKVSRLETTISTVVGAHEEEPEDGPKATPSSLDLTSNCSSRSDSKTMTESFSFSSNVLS
# T2 sequence (P41145 whole entry): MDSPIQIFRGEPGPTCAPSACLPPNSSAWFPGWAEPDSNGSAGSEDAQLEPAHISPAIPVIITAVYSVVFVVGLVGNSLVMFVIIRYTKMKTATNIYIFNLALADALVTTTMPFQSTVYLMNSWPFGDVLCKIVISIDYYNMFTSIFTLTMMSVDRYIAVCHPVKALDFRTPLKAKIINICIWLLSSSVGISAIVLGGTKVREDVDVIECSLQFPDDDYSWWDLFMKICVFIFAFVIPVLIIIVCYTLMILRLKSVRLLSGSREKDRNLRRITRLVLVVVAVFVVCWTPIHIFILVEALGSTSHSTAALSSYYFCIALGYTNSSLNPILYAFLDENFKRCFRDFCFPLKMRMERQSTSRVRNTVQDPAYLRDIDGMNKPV
smiles,measurement,setting,value
NCCCC(=O)NC1C(OCc2ccc3ccccc3c2)OC(COCc2ccc3ccccc3c2)C(O)C1OCc1ccccc1 (stereo not shown) [compound 396],A7: inhibition of radioligand binding,"Human μ-opioid (MOP); [3H]-Naloxone, human MOP membranes",− (“−” indicates less than 50% inhibition at 10 μM)
same,A2: inhibition of radioligand binding,"Human κ-Opioid (KOP); [3H]-Diprenorphine, human KOP membranes",− (“−” indicates less than 50% inhibition at 10 μM)
same,A8: inhibition of radioligand binding,"Human neurokinin (NK1); [125I]-Substance P, human NK1 membranes",+ (“+” indicates greater than 50% inhibition at 10 μM)
same,A10: inhibition of radioligand binding,"Human opioid (ORL1); [125I]-Nociceptin, human ORL1 membranes, 10 µM",− (“−” indicates less than 50% inhibition at 10 μM)
same,A9: inhibition of radioligand binding,"[1]; [125I]-PYY, human NPY-Y1 membranes",− (“−” indicates less than 50% inhibition at 10 μM)
same,A1: inhibition of radioligand binding,"Human δ-opioid (DOP); [3H]-Bremazocine, human DOP membranes",− (“−” indicates less than 50% inhibition at 10 μM)
same,A5: inhibition of radioligand binding,"Human melanocortin (MC5); [125I]-NDP-αMSH, human MC5 membranes",+ (“+” indicates greater than 50% inhibition at 10 μM)
same,A4: inhibition of radioligand binding,"Human Melanocortin (MC4); [125I]-NDP-αMSH, human MC4 membranes, 10 µM",+ (“+” indicates greater than 50% inhibition at 10 μM)
same,A11: inhibition of radioligand binding,"Mouse urotensin (mUR2); [125I]-Urotensin II, mouse mUR2 membranes",− (“−” indicates less than 50% inhibition at 10 μM)
same,A3: inhibition of radioligand binding,"Human Melanocortin (MC3); [125I]-NDP-αMSH, human MC3 membranes, 10 µM",+ (“+” indicates greater than 50% inhibition at 10 μM)
same,A6: inhibition of radioligand binding,"[2]; [125I]-S36057, human MCH1 membranes, 10 µM",− (“−” indicates less than 50% inhibition at 10 μM)
N=C(N)NCC(=O)N[C@H]1C(OCc2ccc(Cl)cc2)O[C@H](COCc2ccc(Cl)cc2)[C@@H](O)[C@@H]1OCc1ccc2ccccc2c1 (stereo partly shown) [compound 515],"A7: inhibition of radioligand binding, human μ-opioid (MOP)",Human μ-opioid (MOP); [3H]-Naloxone,− (“−” indicates less than 50% inhibition at 10 μM)
same,"A2: inhibition of radioligand binding, human κ-opioid (KOP)",Human κ-Opioid (KOP); [3H]-Diprenorphine,− (“−” indicates less than 50% inhibition at 10 μM)
same,"A8: inhibition of radioligand binding, human neurokinin (NK1)",Human neurokinin (NK1); [125I]-Substance P,+ (“+” indicates greater than 50% inhibition at 10 μM)
same,"A10: inhibition of radioligand binding, human opioid (ORL1)","Human opioid (ORL1); [125I]-Nociceptin, 10 µM",+ (“+” indicates greater than 50% inhibition at 10 μM)
same,"A9: inhibition of radioligand binding, human neuropeptide Y (NPY-Y1)",[1]; [125I]-PYY,− (“−” indicates less than 50% inhibition at 10 μM)
same,"A1: inhibition of radioligand binding, human δ-opioid (DOP)",Human δ-opioid (DOP); [3H]-Bremazocine,− (“−” indicates less than 50% inhibition at 10 μM)
same,"A5: inhibition of radioligand binding, human melanocortin (MC5)",Human melanocortin (MC5); [125I]-NDP-αMSH,+ (“+” indicates greater than 50% inhibition at 10 μM)
same,"A4: inhibition of radioligand binding, human melanocortin (MC4)",Human Melanocortin (MC4); [125I]-NDP-αMSH,+ (“+” indicates greater than 50% inhibition at 10 μM)
same,"A11: inhibition of radioligand binding, mouse urotensin (mUR2)",Mouse urotensin (mUR2); [125I]-Urotensin II,− (“−” indicates less than 50% inhibition at 10 μM)
same,"A3: inhibition of radioligand binding, human melanocortin (MC3)",Human Melanocortin (MC3); [125I]-NDP-αMSH,+ (“+” indicates greater than 50% inhibition at 10 μM)
same,"A6: inhibition of radioligand binding, human melanin-concentrating hormone (MCH1)",[2]; [125I]-S36057,+ (“+” indicates greater than 50% inhibition at 10 μM)
CO[C@H]1[C@H](O)[C@@H](COCc2ccc3ccccc3c2)OC(OCc2ccc3ccccc3c2)[C@@H]1NC(=O)CNC(=N)N (stereo partly shown) [compound 70],A7 radioligand binding inhibition,Human μ-opioid (MOP); human μ-opioid (MOP) membranes,+ (“+” indicates greater than 50% inhibition at 10 μM)
same,A2 radioligand binding inhibition,Human κ-Opioid (KOP); human κ-opioid (KOP) membranes,− (“−” indicates less than 50% inhibition at 10 μM)
same,A8 radioligand binding inhibition,Human neurokinin (NK1); human neurokinin NK1 membranes,+ (“+” indicates greater than 50% inhibition at 10 μM)
same,A10 radioligand binding inhibition,Human opioid (ORL1); human ORL1 membranes,− (“−” indicates less than 50% inhibition at 10 μM)
same,A9 radioligand binding inhibition,[1]; human NPY-Y1 membranes,− (“−” indicates less than 50% inhibition at 10 μM)
same,A1 radioligand binding inhibition,Human δ-opioid (DOP); human δ-opioid (DOP) membranes,− (“−” indicates less than 50% inhibition at 10 μM)
same,A5 radioligand binding inhibition,Human melanocortin (MC5); human melanocortin MC5 membranes,+ (“+” indicates greater than 50% inhibition at 10 μM)
same,A4 radioligand binding inhibition,Human Melanocortin (MC4); human melanocortin MC4 membranes,+ (“+” indicates greater than 50% inhibition at 10 μM)
same,A11 radioligand binding inhibition,Mouse urotensin (mUR2); mouse urotensin mUR2 membranes,− (“−” indicates less than 50% inhibition at 10 μM)
same,A3 radioligand binding inhibition,Human Melanocortin (MC3); human melanocortin MC3 membranes,+ (“+” indicates greater than 50% inhibition at 10 μM)
same,A6 radioligand binding inhibition,[2]; human MCH1 membranes,− (“−” indicates less than 50% inhibition at 10 μM)
CO[C@H]1[C@H](O)[C@@H](COCc2ccccc2)OC(OCc2ccc(Cl)cc2)[C@@H]1NC(=O)CCCNC(=N)N (stereo partly shown) [compound 104],"A7 radioligand binding, percentage inhibition",Human μ-opioid (MOP); [3H]-Naloxone,+ (“+” indicates greater than 50% inhibition at 10 μM)
same,"A2 radioligand binding, percentage inhibition",Human κ-Opioid (KOP); [3H]-Diprenorphine,− (“−” indicates less than 50% inhibition at 10 μM)
same,"A8 radioligand binding, percentage inhibition",Human neurokinin (NK1); [125I]-Substance P,+ (“+” indicates greater than 50% inhibition at 10 μM)
same,"A10 radioligand binding, percentage inhibition",Human opioid (ORL1); [125I]-Nociceptin,− (“−” indicates less than 50% inhibition at 10 μM)
same,"A9 radioligand binding, percentage inhibition",[1]; [125I]-PYY,− (“−” indicates less than 50% inhibition at 10 μM)
same,"A1 radioligand binding, percentage inhibition",Human δ-opioid (DOP); [3H]-Bremazocine,− (“−” indicates less than 50% inhibition at 10 μM)
same,"A5 radioligand binding, percentage inhibition",Human melanocortin (MC5); [125I]-NDP-αMSH,+ (“+” indicates greater than 50% inhibition at 10 μM)
same,"A4 radioligand binding, percentage inhibition",Human Melanocortin (MC4); [125I]-NDP-αMSH,+ (“+” indicates greater than 50% inhibition at 10 μM)
same,"A11 radioligand binding, percentage inhibition",Mouse urotensin (mUR2); [125I]-Urotensin II,− (“−” indicates less than 50% inhibition at 10 μM)
same,"A3 radioligand binding, percentage inhibition",Human Melanocortin (MC3); [125I]-NDP-αMSH,− (“−” indicates less than 50% inhibition at 10 μM)
same,"A6 radioligand binding, percentage inhibition",[2]; [125I]-S36057,− (“−” indicates less than 50% inhibition at 10 μM)
COCC1OC(OCc2ccccc2)C(NC(=O)CCCN)C(OCc2ccc(-c3ccccc3)cc2)C1O (stereo not shown) [compound 186],"A7 radioligand binding, percentage inhibition",Human μ-opioid (MOP); [3H]-Naloxone,− (“−” indicates less than 50% inhibition at 10 μM)
same,"A2 radioligand binding, percentage inhibition",Human κ-Opioid (KOP); [3H]-Diprenorphine,− (“−” indicates less than 50% inhibition at 10 μM)
same,"A8 radioligand binding, percentage inhibition",Human neurokinin (NK1); [125I]-Substance P,+ (“+” indicates greater than 50% inhibition at 10 μM)
same,"A10 radioligand binding, percentage inhibition",Human opioid (ORL1); [125I]-Nociceptin,− (“−” indicates less than 50% inhibition at 10 μM)
same,"A9 radioligand binding, percentage inhibition",[1]; [125I]-PYY,− (“−” indicates less than 50% inhibition at 10 μM)
same,"A1 radioligand binding, percentage inhibition",Human δ-opioid (DOP); [3H]-Bremazocine,− (“−” indicates less than 50% inhibition at 10 μM)
same,"A5 radioligand binding, percentage inhibition",Human melanocortin (MC5); [125I]-NDP-αMSH,+ (“+” indicates greater than 50% inhibition at 10 μM)
same,"A4 radioligand binding, percentage inhibition",Human Melanocortin (MC4); [125I]-NDP-αMSH,− (“−” indicates less than 50% inhibition at 10 μM)
same,"A11 radioligand binding, percentage inhibition",Mouse urotensin (mUR2); [125I]-Urotensin II,− (“−” indicates less than 50% inhibition at 10 μM)
same,"A3 radioligand binding, percentage inhibition",Human Melanocortin (MC3); [125I]-NDP-αMSH,− (“−” indicates less than 50% inhibition at 10 μM)
same,"A6 radioligand binding, percentage inhibition",[2]; [125I]-S36057,− (“−” indicates less than 50% inhibition at 10 μM)
